Test results taken from patent publication US20070249633A1, “1,2,4-Triazolo[1,5a] Pyrimidines and Use Thereof for Controlling Plant-Pathogenic Fungi” (priority 2004, published 2007).

Assays:
Alternaria solani = experiment: Activity against early blight of tomato caused by Alternaria solani (protective spray, potted plants); assay type: in vivo; conditions: 250 ppm active compound; tomato cultivar St. Pierre beef tomato; infected next day; assessed after 5 days; untreated plants 80% infected
Protocol: The active compounds were prepared as a stock solution comprising 0.25% by weight of active compound in acetone or dimethyl sulfoxide (DMSO). 1% by weight of the emulsifier Uniperol® EL (wetting agent having emulsifying and dispersing action based on ethoxylated alkylphenols) was added to this solution, and the mixture was diluted with water to the desired concentration. Leaves of potted plants of the cultivar “St. Pierre beef tomato” were sprayed to run off point with an aqueous suspension having the concentration of active compounds stated below. The next day, the leaves were infected with an aqueous zoospore suspension of Alternaria solani in 2% biomalt solution having a density of 0.17×10^6 spores/ml. The plants were then placed in a water-vapor-saturated chamber at temperatures of between 20 and 22° C. After 5 days, the infection on the leaves of the untreated, but infected control plants had developed to such an extent that the infection could be determined visually in %.

Botrytis cinerea = experiment: Activity against gray mold on bell pepper leaves caused by Botrytis cinerea (protective spray, seedlings); assay type: in vivo; conditions: 250 ppm active compound; bell pepper seedlings Neusiedler Ideal Elite; inoculated next day; assessed after 5 days; untreated plants 90% infected
Protocol: The active compounds were prepared as a stock solution comprising 0.25% by weight of active compound in acetone or dimethyl sulfoxide (DMSO). 1% by weight of the emulsifier Uniperol® EL (wetting agent having emulsifying and dispersing action based on ethoxylated alkylphenols) was added to this solution, and the mixture was diluted with water to the desired concentration.
Bell pepper seedlings of the cultivar “Neusiedler Ideal Elite” were, after 2-3 leaves were well developed, sprayed to runoff point with an aqueous suspension having the concentration of active compound stated below. The next day, the treated plants were inoculated with a spore suspension of Botrytis cinerea which contained 1.7×10^6 spores/ml in a 2% strength aqueous biomalt solution. The test plants were then placed in a climatized chamber at 22-24° C. and high atmospheric humidity. After 5 days, the extent of the fungal infection on the leaves could be determined visually in %.

Compound: CCC(C)Cc1c(-c2ccc([N+](=O)[O-])cc2Cl)c(C)nc2ncnn12 (centres unmarked) [example 1, 5-methyl-6-(2chloro-4-nitrophenyl)-7-(2-methylbutyl)-1,2,4-triazolo[1,5-a]pyrimidine]
- infection on the leaves determined visually in % (Alternaria solani): less than 5%
- extent of the fungal infection on the leaves determined visually in % (Botrytis cinerea): no infection
